Active and inactive are the calls of the source. Rule as the data show it, for most assays here: actives have a measured Kd and inactives only a lower limit.
Assays:
LIM domain kinase 1 = LIM domain kinase 1 (Homo sapiens, UniProt P53667)
[1] = biological target: T1, Mitogen-activated protein kinase kinase kinase 6 (Homo sapiens, UniProt O95382)
T1 sequence (O95382 whole entry): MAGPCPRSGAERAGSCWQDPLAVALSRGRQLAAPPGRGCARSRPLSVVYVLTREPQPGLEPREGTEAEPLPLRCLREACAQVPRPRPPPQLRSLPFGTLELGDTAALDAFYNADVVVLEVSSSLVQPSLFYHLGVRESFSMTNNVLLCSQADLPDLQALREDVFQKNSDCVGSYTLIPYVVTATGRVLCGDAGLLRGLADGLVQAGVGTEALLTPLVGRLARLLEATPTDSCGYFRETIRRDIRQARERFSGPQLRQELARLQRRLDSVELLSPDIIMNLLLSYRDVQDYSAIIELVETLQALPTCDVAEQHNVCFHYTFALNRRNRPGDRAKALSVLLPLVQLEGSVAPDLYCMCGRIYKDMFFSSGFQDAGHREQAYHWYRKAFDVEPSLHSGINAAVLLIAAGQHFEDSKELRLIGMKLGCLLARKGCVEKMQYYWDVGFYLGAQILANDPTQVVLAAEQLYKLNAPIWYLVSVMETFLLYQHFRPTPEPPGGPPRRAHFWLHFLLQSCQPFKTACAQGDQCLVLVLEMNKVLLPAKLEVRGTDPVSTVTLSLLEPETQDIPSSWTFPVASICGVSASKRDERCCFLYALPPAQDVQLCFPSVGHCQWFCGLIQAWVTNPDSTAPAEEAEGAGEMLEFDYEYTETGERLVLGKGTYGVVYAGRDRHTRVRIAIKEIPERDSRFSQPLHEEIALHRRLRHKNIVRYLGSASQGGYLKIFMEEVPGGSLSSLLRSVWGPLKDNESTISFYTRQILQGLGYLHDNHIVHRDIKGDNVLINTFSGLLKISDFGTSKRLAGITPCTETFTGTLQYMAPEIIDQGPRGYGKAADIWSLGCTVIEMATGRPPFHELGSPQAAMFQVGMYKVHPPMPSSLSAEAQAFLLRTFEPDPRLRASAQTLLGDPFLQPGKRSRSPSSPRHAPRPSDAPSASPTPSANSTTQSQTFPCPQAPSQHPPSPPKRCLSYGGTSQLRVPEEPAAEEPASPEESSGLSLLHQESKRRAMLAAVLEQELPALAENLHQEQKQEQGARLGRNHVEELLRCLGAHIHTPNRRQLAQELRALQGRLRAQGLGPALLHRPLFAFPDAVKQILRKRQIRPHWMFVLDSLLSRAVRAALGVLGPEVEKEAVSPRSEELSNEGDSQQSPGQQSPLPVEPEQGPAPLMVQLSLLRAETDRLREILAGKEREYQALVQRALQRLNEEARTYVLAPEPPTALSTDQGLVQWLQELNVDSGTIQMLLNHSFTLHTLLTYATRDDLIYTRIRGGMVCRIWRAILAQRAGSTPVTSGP

[2] = biological target: Calcium/calmodulin-dependent protein kinase kinase 2 (Homo sapiens, UniProt Q96RR4)
Chain of Calcium/calmodulin-dependent protein kinase kinase 2 (Q96RR4 whole entry): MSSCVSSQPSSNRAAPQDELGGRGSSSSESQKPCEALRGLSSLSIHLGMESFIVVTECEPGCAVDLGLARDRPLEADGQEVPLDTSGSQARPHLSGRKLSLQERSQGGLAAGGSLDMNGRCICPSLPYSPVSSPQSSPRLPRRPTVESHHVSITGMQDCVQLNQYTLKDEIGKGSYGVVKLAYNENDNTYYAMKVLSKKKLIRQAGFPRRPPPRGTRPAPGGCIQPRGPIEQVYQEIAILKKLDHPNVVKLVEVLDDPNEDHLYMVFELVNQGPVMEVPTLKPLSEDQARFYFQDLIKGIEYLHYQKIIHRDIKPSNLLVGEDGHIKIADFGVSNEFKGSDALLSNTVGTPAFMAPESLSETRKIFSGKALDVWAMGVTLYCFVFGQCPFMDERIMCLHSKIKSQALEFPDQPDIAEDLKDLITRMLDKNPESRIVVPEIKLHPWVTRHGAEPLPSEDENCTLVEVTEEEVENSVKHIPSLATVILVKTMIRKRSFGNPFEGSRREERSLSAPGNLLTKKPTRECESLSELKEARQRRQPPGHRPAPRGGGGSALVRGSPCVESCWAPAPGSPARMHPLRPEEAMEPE

[3] = biological target: Mitogen-activated protein kinase 1 (Homo sapiens, UniProt P28482)
Chain of Mitogen-activated protein kinase 1 (P28482 whole entry, canonical isoform): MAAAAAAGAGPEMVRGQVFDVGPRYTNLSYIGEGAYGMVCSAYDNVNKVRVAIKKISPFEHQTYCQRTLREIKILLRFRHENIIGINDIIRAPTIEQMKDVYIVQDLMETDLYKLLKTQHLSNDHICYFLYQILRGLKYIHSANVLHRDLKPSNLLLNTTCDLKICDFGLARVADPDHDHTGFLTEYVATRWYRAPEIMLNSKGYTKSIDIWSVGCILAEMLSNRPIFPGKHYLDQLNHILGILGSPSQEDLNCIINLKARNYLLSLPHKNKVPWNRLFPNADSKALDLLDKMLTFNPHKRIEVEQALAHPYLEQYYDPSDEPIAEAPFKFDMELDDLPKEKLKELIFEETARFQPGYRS

[4] = biological target: Casein kinase I isoform gamma-1 (Homo sapiens, UniProt Q9HCP0)
Chain of Casein kinase I isoform gamma-1 (Q9HCP0 whole entry, canonical isoform): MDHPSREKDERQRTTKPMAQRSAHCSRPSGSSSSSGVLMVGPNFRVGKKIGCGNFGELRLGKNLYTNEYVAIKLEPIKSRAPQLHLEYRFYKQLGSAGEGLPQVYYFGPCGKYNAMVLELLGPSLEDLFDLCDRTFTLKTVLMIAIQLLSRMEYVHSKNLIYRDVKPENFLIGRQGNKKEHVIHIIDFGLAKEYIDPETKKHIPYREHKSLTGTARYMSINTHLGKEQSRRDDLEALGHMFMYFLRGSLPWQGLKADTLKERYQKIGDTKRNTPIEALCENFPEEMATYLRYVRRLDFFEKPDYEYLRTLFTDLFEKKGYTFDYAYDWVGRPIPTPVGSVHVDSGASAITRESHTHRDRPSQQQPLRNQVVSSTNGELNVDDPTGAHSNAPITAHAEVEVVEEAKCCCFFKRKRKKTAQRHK

[5] = biological target: TRAF2 and NCK-interacting protein kinase (Homo sapiens, UniProt Q9UKE5)
Chain of TRAF2 and NCK-interacting protein kinase (Q9UKE5 whole entry): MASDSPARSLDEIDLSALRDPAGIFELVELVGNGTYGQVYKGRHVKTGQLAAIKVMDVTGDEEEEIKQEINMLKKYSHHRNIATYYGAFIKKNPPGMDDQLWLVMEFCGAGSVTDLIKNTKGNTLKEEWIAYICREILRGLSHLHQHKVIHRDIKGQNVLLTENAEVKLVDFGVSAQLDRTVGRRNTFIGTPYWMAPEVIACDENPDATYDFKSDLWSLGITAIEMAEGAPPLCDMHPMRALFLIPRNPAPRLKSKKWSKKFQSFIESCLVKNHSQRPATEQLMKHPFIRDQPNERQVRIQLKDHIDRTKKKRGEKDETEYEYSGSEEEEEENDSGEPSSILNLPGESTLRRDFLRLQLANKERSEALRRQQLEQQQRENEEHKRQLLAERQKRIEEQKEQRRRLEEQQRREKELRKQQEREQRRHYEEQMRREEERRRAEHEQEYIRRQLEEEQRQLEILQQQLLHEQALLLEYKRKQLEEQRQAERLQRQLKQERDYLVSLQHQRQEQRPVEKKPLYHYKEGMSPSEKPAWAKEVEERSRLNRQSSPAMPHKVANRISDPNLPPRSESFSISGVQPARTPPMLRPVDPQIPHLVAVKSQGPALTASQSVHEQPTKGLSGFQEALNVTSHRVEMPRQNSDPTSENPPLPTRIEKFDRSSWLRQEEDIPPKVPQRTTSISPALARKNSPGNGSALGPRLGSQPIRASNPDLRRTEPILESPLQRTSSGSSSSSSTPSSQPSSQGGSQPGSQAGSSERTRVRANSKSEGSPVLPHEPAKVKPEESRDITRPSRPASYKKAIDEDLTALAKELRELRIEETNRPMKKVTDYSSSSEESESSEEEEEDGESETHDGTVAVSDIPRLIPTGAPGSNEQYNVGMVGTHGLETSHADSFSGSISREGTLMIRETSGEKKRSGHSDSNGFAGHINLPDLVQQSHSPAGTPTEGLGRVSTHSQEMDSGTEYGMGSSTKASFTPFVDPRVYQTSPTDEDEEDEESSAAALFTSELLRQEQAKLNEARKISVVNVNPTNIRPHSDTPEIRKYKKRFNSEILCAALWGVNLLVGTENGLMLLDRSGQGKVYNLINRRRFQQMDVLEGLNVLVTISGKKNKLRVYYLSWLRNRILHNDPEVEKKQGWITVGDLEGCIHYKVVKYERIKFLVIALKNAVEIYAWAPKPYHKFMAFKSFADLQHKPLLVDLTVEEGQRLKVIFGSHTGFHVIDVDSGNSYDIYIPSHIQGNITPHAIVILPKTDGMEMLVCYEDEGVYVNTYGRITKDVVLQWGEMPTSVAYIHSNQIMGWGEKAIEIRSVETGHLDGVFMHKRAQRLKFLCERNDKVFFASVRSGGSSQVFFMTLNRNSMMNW

[6] = biological target: Receptor-interacting serine/threonine-protein kinase 3 (Homo sapiens, UniProt Q9Y572)
[7] = biological target: Serine/threonine-protein kinase 10 (Homo sapiens, UniProt O94804)
Chain of Serine/threonine-protein kinase 10 (O94804 whole entry): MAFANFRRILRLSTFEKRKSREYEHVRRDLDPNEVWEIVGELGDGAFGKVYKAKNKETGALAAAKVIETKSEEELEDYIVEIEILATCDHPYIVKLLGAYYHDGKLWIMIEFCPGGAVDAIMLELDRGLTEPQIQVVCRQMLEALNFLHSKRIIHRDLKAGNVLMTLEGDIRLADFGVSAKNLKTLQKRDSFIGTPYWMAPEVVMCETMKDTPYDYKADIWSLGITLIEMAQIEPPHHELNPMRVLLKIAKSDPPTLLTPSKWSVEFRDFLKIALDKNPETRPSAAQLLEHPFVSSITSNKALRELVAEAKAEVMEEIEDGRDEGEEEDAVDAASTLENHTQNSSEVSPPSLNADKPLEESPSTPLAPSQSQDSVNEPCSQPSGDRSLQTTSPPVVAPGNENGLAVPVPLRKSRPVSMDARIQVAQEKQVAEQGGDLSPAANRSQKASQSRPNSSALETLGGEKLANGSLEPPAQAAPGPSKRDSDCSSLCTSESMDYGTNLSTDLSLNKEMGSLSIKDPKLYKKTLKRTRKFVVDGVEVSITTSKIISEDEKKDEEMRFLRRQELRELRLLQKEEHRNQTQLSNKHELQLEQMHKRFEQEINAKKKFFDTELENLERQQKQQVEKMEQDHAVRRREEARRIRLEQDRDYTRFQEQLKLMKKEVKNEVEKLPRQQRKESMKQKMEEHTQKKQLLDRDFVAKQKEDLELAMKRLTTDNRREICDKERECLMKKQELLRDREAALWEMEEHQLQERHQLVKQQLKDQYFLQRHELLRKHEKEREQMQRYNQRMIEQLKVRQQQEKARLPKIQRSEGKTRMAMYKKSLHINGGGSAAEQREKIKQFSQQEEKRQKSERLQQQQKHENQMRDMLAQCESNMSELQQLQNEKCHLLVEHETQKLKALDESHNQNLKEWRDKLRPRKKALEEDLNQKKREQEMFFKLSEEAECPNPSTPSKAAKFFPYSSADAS

[8] = biological target: Cyclin-dependent kinase 1 (Homo sapiens, UniProt P06493)
Chain of Cyclin-dependent kinase 1 (P06493 whole entry): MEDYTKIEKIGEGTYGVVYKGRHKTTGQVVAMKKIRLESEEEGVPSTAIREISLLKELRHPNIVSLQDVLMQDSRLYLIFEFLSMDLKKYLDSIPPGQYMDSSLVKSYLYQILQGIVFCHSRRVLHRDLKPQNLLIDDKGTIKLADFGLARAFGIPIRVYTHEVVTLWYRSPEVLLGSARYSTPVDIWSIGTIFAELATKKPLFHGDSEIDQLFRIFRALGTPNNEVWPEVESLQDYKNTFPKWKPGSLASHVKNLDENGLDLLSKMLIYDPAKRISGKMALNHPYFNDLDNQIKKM

Ephrin type-B receptor 2 = biological target: T2, Ephrin type-B receptor 2 (Homo sapiens, UniProt P29323)
T2 sequence (P29323 whole entry): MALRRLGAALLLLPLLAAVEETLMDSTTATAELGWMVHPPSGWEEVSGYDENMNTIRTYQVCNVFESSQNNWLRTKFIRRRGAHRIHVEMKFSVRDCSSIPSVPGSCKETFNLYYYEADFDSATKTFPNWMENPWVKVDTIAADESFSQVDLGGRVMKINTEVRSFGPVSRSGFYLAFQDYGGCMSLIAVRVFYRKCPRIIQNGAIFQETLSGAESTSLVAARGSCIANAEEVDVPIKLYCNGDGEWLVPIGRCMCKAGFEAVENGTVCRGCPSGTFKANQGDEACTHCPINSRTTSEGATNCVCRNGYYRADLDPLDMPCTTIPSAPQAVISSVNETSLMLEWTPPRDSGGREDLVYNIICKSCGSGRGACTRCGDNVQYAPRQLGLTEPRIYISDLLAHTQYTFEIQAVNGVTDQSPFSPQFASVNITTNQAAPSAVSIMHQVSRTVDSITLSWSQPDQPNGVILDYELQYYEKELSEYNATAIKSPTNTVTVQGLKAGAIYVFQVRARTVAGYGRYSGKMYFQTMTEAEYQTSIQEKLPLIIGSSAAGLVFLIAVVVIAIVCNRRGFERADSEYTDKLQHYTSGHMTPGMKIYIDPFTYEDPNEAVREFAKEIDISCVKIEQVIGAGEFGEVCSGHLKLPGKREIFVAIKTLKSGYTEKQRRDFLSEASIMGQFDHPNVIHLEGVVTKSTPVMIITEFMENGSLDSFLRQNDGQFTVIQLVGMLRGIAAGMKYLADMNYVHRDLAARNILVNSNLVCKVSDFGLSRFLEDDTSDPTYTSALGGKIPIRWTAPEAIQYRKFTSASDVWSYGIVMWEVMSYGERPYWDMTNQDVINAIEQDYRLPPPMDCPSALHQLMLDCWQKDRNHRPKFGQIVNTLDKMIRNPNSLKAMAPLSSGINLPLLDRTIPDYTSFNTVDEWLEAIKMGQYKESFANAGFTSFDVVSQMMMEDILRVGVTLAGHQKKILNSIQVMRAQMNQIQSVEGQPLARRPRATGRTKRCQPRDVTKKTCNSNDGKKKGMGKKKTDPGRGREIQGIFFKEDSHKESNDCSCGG
Also: in the data inactive means no Kd found up to 30 µM.

Chain of LIM domain kinase 1 (P53667 whole entry, the tested form may be a part): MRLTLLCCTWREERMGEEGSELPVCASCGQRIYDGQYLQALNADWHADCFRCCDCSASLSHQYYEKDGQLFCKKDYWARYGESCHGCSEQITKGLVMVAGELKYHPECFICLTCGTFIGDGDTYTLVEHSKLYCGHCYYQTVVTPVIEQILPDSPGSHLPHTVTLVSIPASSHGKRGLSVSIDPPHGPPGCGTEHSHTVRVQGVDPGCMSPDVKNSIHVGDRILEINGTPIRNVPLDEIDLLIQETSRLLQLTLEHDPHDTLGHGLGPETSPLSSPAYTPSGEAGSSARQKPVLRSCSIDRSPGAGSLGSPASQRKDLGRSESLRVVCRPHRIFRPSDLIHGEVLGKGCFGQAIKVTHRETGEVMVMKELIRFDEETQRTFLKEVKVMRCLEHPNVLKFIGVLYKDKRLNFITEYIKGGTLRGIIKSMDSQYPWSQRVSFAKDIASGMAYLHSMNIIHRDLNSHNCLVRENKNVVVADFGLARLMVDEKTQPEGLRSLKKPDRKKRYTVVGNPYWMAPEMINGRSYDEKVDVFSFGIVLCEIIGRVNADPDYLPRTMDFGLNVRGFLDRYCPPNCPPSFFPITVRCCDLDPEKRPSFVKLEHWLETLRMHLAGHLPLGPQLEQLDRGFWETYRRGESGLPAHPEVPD

Question: What does the source list for C[C@@H](NC(=O)c1ncnc(N)c1Cl)c1ncc(C(=O)Nc2cc(C(F)(F)F)c(Cl)cn2)s1 [TOVORAFENIB]?
Answer: Kd (LIM domain kinase 1): 1.02 µM (active); Kd [1]: > 30 µM (inactive); Kd [2]: > 30 µM (inactive); Kd [3]: > 30 µM (inactive); Kd [4]: > 30 µM (inactive); Kd [5]: > 30 µM (inactive); Kd [6]: 1.8 µM (active); Kd [7]: > 30 µM (inactive); Kd [8]: > 30 µM (inactive); Kd (Ephrin type-B receptor 2): > 30 µM (inactive)

Question: With Cc1cc(Nc2ncnc3ccc(NC4=NC(C)(C)CO4)cc23)ccc1Oc1ccn2ncnc2c1 [TUCATINIB] as the compound, how does the Kd (LIM domain kinase 1) read?
Answer: Its Kd is > 30 µM (inactive).

Question: And the Kd [1]?
Answer: The Kd was > 30 µM (inactive).

Question: And the Kd [2]?
Answer: Its Kd is > 30 µM (inactive).

Question: And the Kd [3]?
Answer: Its Kd is > 30 µM (inactive).

Question: What about the Kd [4] of the same compound?
Answer: Its Kd is > 30 µM (inactive).

Question: What about the Kd [5] of the same compound?
Answer: The Kd was > 30 µM (inactive).

Question: And the Kd [6]?
Answer: Its Kd is 1.06 µM.

Question: And the Kd [7]?
Answer: Its Kd is > 30 µM (inactive).

Question: What about the Kd [8] of the same compound?
Answer: The Kd was > 30 µM (inactive).

Question: And the Kd (Ephrin type-B receptor 2)?
Answer: Its Kd is > 30 µM (inactive).

Question: Which results are given for Cn1ncc(Cl)c1-c1cc(C(=O)N[C@H](CN)Cc2ccc(F)c(F)c2)oc1Cl [UPROSERTIB]?
Answer: Kd (LIM domain kinase 1): > 30 µM (inactive); Kd [1]: > 30 µM (inactive); Kd [2]: > 30 µM (inactive); Kd [3]: > 30 µM (inactive); Kd [4]: > 30 µM (inactive); Kd [5]: > 30 µM (inactive); Kd [6]: > 30 µM (inactive); Kd [7]: > 30 µM (inactive); Kd [8]: > 30 µM (inactive); Kd (Ephrin type-B receptor 2): > 30 µM (inactive)

Question: With CC(C)c1cc(CNc2nc(Nc3cc(C4CC4)[nH]n3)cc(N3CCN(C)CC3)n2)on1 [XL-228] as the compound, how does the Kd (LIM domain kinase 1) read?
Answer: Its Kd is 2.07 µM (active).

Question: And the Kd [1]?
Answer: Its Kd is > 30 µM (inactive).

Question: What about the Kd [2] of the same compound?
Answer: Its Kd is 2.34 µM (active).

Question: And the Kd [3]?
Answer: Its Kd is > 30 µM (inactive).

Question: And the Kd [4]?
Answer: Its Kd is > 30 µM (inactive).

Question: What about the Kd [5] of the same compound?
Answer: Its Kd is 0.184 µM.

Question: And the Kd [6]?
Answer: The Kd was > 30 µM (inactive).

Question: What about the Kd [7] of the same compound?
Answer: The Kd was 0.379 µM (active).

Question: And the Kd [8]?
Answer: The Kd was > 30 µM (inactive).

Question: And the Kd (Ephrin type-B receptor 2)?
Answer: The Kd was 2.51 µM (active).

Question: How did the Kd (LIM domain kinase 1) turn out when C[C@@H](N)c1ccc(C(=O)Nc2ccnc3[nH]ccc23)cc1 [Y-39983] was run?
Answer: Its Kd is > 30 µM (inactive).

Question: What about the Kd [1] of the same compound?
Answer: The Kd was > 30 µM (inactive).

Question: And the Kd [2]?
Answer: Its Kd is > 30 µM (inactive).

Question: What about the Kd [3] of the same compound?
Answer: The Kd was > 30 µM (inactive).

Question: What about the Kd [4] of the same compound?
Answer: The Kd was > 30 µM (inactive).

Question: And the Kd [5]?
Answer: The Kd was > 30 µM (inactive).

Question: And the Kd [6]?
Answer: The Kd was > 30 µM (inactive).

Question: What about the Kd [7] of the same compound?
Answer: Its Kd is > 30 µM (inactive).

Question: What about the Kd [8] of the same compound?
Answer: Its Kd is > 30 µM (inactive).

Question: What about the Kd (Ephrin type-B receptor 2) of the same compound?
Answer: Its Kd is > 30 µM (inactive).

Question: How did the Kd (LIM domain kinase 1) turn out when CN1C/C=C/CCOc2cccc(c2)-c2ccnc(n2)Nc2cccc(c2)C1 [ZOTIRACICLIB] was run?
Answer: Its Kd is > 30 µM (inactive).

Question: And the Kd [1]?
Answer: Its Kd is > 30 µM (inactive).

Question: And the Kd [2]?
Answer: The Kd was > 30 µM (inactive).

Question: And the Kd [3]?
Answer: Its Kd is > 30 µM (inactive).

Question: What about the Kd [4] of the same compound?
Answer: The Kd was > 30 µM (inactive).

Question: What about the Kd [5] of the same compound?
Answer: The Kd was > 30 µM (inactive).

Question: And the Kd [6]?
Answer: The Kd was > 30 µM (inactive).

Question: And the Kd [7]?
Answer: Its Kd is 9.95 µM (active).

Question: What about the Kd [8] of the same compound?
Answer: Its Kd is > 30 µM (inactive).

Question: And the Kd (Ephrin type-B receptor 2)?
Answer: The Kd was > 30 µM (inactive).

From ChEMBL document CHEMBL3991601, “The target landscape of clinical kinase drugs” (Science, 2017)
